This note sets out measurements from patent US20250352500A1, “USE OF PHENOLIC ACIDS DERIVATIVES IN TREATING ISCHEMIC STROKE” (LANZHOU UNIVERSITY, priority 2022, published 2025).

Holding throughout (format): in vivo, male C57/BL mice
For test [1], the system named is HIF-1α. Kind of test: HIF-1α protein Western blot in brain tissue. The note with it: 72 h; for HIF-1α protein expression reduced compared with MCAO model group: three days of administration, compound 2 100 mg/kg, compound 1 50 mg/kg. How it is done: (§1) Grouping and administration method: Male C57/BL mice weighing 23±1 g were randomly divided into sham operation group (SHAM), model group (MCAO), compound 2 group (100 mg/kg), and compound 1 group (50 mg/kg), with 10 mice in each group. Mice in the SHAM group underwent vascular isolation, but no […] was administered, and no treatment was given before or after surgery. The model group mice were constructed with MCAO models and were not treated before and after surgery. The treatment group was treated with compound 2 or compound 1 on the basis of the model group. Mice with a neurological score of 0 after reperfusion and those that died before 72 hours post-surgery were excluded. The administration time for animal behavior tests was seven times at 0 h, 1 day, 2 days, 3 days, 4 days, 5 days, and 6 days after reperfusion, while the administration time for other experiments was three times at 0 h, 1 day, and 2 days after reperfusion. The drug was administered through the tail vein, and the sham operation group and model group were given equal amounts of saline.
HIF-1α is a sensitive regulator of oxygen homeostasis, rapidly inducing its expression after hypoxia-ischemia. It plays a wide range of roles in the pathophysiology of stroke, including neuronal survival, neuroinflammation, angiogenesis, glucose metabolism, and blood-brain barrier regulation. It can not only produce specific sensations in the case of hypoxia, but also facilitate the maintenance of oxygen homeostasis in the body. […]
After 72 hours of ischemia-reperfusion, the expression level of HIF-1α protein in brain tissue was detected by Western blot. […] In this experiment, β-actin was used as the internal reference protein. n=3, data are mean±SEM, analyzed using one-way ANOVA and Tukey's HSD test. *P<0.05, **P<0.01, ***P<0.001. ^#P<0.05, ^##P<0.01, ^###P<0.001. * indicates a comparison with the SHAM group, ^# indicates a comparison with the compound 2 group.
(Immunoblotting shows a protein as a band on a membrane.)

Test [2] concerns GFAP. The test can be described thus: GFAP protein Western blot in brain tissue. The settings on record: for GFAP protein expression reduced compared with MCAO group: 72 h ischemia-reperfusion, three days of administration, compound 2 100 mg/kg, compound 1 50 mg/kg. As for the experimental part: as §1
After 72 hours of ischemia-reperfusion, the protein expression level of GFAP, a marker of astrocytes in brain tissue, was detected with Western blot. The representative Western blot (WB) images of GFAP protein expression in the brain tissues of the sham operation group (SHAM), model group (MCAO), compound 2 group, and compound 1 group are shown in FIG. 6A, and the quantitative statistical results are shown in FIG. 6B. […] In this experiment, β-actin was used as an internal reference protein. n=3, data are mean±SEM, analyzed using one-way ANOVA and Tukey's HSD test. *P<0.05, **P<0.01, ***P<0.001. ^#P<0.05, ^##P<0.01, ^###P<0.001. * indicates comparison with the SHAM group, # indicates comparison with the compound 2 group.

Test [3] has as its system COX2. Kind of test: RT-qPCR of COX2 mRNA in brain tissue. The settings on record: 72 h, three days of administration, compound 2 100 mg/kg, compound 1 50 mg/kg, P<0.001. As for the experimental part:
as §1, with “The administration time for animal behavior tests was seven times at 0 h, 1 day, 2 days, 3 days, 4 days, 5 days, and 6 days after reperfusion, while the administration time for other experiments was three times at 0 h, 1 day, and 2 days after reperfusion. The drug was administered through the tail vein, and the sham operation group and model group were given equal amounts of saline.” left out
(§2) To investigate the effect of compounds on the expression of inflammatory factors after ischemia-reperfusion, this study used immunofluorescence experiments to observe the expression of TNF-α, IL-1β, IL-6, iNOS, and COX2 proteins in brain tissue. […] The concentrations of TNF-α, IL-1β, and IL-6 in brain homogenate were detected by enzyme-linked immunosorbent assay (ELISA), and the expression level of TNF-α protein in brain tissue was detected by Western blot.
After 72 hours of ischemia-reperfusion, the mRNA expression levels of TNF-α, IL-1β, IL-6, iNOS, and COX2 in brain tissue were detected and analyzed by RT-qPCR. […]
(Real-time PCR tracks product formation cycle by cycle.)

Test [4] concerns iba1. Kind of test: iba1 immunofluorescence in brain tissue (microglia). The settings on record: 72 h ischemia-reperfusion, three days of administration; compound 2 100 mg/kg, compound 1 50 mg/kg; MCAO group 303±23; mean±SEM, n=3. As for the experimental part: as §1, with “The administration time for animal behavior tests was seven times at 0 h, 1 day, 2 days, 3 days, 4 days, 5 days, and 6 days after reperfusion, while the administration time for other experiments was three times at 0 h, 1 day, and 2 days after reperfusion. The drug was administered through the tail vein, and the sham operation group and model group were given equal amounts of saline.” left out
Microglia are resident phagocytic cells in the nervous system and are the primary defense system for stress and injury in central nervous cells. […] To investigate whether the compound has an effect on the activation and proliferation of microglia in the ischemia-reperfusion model, this study used immunofluorescence experiments to detect the fluorescence expression of iba1 in the brain tissues of the sham operation group (SHAM), model group (MCAO), compound 2 group, and compound 1 group. Then, the expression level of iba1 in microglia in brain tissue was detected by Western blot. […]

The test system of test [5] is TNF-α. The test can be described thus: ELISA of TNF-α in brain homogenate. The note with it: 72 h, three days of administration, compound 2 100 mg/kg, compound 1 50 mg/kg. How it is done:
as §1, with “The administration time for animal behavior tests was seven times at 0 h, 1 day, 2 days, 3 days, 4 days, 5 days, and 6 days after reperfusion, while the administration time for other experiments was three times at 0 h, 1 day, and 2 days after reperfusion. The drug was administered through the tail vein, and the sham operation group and model group were given equal amounts of saline.” left out
as §2
After 72 hours of ischemia-reperfusion, the expression levels of inflammatory factors TNF-α, IL-1β, and IL-6 in the mouse brain homogenate were detected.
In general terms: In an ELISA, binding on a coated surface is turned into a signal by an enzyme label.

On to `O=C(O)c1cc(O)ccc1O` [compound 1], for which, in test [1], the “HIF-1α protein expression reduced compared with MCAO model group” value was 46±10%. Further, in test [2], the “GFAP protein expression reduced compared with MCAO group” value turned out to be 25±10%. Moreover, the “COX2 mRNA expression compared with MCAO group” value in test [3] is reported as “significantly reduced”. Further, the “Number of iba1-positive cells” value in test [4] is 200±12 /mm^2. For the same compound, the “Decrease in TNF-α expression compared with MCAO group” value in test [5] is listed as “reduced to varying degrees”.

With `O=C(O)c1cc(OP(=O)(O)O)ccc1OP(=O)(O)O` [compound 2], in test [1] (compound 2 100 mg/kg vs compound 1 50 mg/kg), the “HIF-1α protein expression level compared with the compound 1 group” value is recorded as “significantly reduced”. In test [1], the “HIF-1α protein expression reduced compared with MCAO model group” value is recorded as 53±10%. In addition, the “GFAP protein expression reduced compared with the compound 1 group” value in test [2] (72 h, compound 2 100 mg/kg vs compound 1 50 mg/kg, P<0.05) worked out at 45±10%. The “GFAP protein expression reduced compared with MCAO group” value in test [2] was 43±12%. In addition, in test [3], the “COX2 mRNA expression compared with MCAO group” value was “significantly reduced”. Also, the “Number of iba1-positive cells” value in test [4] is 148±40 /mm^2. The “Decrease in TNF-α expression compared with MCAO group” value in test [5] was found to be 40±10%.
